Biological target: α4β7 integrin (Homo sapiens (Human), UniProt P13612+P26010)
Assay: α4β7 Integrin Cell Capture Assay
Type: cell-based
[1] = Table 2, capture of α4β7 expressing RPM18866 cells on MadCAM-1 extracellular domain-coated plate
[2] = Table 1, capture of α4β7 expressing RPM18866 cells on MadCAM-1 extracellular domain-coated plate
[3] = RPMI8866 cells captured on MadCAM-1 extracellular domain-coated plate

α4β7 integrin, sequence (P13612 34-1032): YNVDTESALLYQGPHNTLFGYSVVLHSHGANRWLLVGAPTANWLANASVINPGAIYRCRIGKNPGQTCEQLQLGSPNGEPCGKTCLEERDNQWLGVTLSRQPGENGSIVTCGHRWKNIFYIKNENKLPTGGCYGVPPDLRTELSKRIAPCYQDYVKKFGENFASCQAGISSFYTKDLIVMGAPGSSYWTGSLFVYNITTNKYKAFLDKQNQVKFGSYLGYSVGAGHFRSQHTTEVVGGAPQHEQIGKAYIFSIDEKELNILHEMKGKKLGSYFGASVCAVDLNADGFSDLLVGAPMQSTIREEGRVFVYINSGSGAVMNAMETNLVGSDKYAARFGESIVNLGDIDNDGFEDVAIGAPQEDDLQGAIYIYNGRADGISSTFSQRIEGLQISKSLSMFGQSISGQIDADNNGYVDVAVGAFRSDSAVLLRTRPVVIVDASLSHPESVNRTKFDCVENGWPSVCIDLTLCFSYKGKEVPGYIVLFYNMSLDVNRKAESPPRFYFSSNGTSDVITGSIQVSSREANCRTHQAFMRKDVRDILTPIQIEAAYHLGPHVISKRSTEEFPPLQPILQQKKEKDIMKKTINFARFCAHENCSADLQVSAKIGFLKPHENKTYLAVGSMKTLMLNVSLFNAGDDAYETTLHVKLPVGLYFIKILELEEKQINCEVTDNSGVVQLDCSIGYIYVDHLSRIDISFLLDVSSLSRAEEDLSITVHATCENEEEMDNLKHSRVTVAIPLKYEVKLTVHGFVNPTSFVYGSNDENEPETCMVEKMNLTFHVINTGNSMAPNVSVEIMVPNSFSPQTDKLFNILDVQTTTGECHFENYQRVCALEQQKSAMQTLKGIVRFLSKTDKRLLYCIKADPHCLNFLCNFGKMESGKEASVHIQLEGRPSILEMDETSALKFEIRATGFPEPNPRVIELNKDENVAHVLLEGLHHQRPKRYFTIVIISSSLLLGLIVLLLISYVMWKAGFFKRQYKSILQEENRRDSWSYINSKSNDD
α4β7 integrin, sequence (P26010 20-798): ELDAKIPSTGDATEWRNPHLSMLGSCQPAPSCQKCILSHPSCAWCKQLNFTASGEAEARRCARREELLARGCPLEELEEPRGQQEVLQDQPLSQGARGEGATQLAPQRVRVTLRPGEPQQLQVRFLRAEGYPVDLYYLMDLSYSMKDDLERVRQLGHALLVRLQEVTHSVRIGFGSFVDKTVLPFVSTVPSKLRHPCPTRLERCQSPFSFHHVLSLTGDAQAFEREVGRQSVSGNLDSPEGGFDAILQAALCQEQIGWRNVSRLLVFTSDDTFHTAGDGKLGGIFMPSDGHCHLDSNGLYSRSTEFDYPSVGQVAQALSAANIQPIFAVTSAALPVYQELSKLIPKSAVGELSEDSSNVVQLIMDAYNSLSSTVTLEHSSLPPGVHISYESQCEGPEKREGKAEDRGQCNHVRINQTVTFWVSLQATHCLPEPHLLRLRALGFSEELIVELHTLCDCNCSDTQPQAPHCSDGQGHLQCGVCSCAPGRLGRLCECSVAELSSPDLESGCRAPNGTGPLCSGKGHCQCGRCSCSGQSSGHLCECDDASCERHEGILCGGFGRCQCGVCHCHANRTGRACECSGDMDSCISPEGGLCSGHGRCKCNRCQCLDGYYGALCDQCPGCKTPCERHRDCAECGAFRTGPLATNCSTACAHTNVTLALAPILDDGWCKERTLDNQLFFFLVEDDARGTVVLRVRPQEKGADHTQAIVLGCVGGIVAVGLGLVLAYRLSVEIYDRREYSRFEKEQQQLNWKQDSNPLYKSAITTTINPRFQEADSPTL

Row | SMILES | EC50 [1] | EC50 [2] | other results
1 | O=C(N[C@@H](Cc1ccc(-c2ccc(C3CC3)cc2Cl)c2ncccc12)C(=O)O)c1c(F)cc(NS(=O)(=O)c2ccc(-c3ccnc(F)c3)cc2)cc1F [Example 54, (S)-3-(8-(2-chloro-4-cyclopropylphenyl)quinolin-5-yl)-2-(2,6-difluoro-4-((4-(2-fluoropyridin-4-yl)phenyl)sulfonamido)benzamido)propanoic acid] |  | 37.4 nM | 
2 | CCOCc1cc(OC)c(-c2ccc(C[C@H](NC(=O)c3c(F)cccc3F)C(=O)O)c3cccnc23)c(OC)c1 [Example 18, (S)-2-(2,6-difluorobenzamido)-3-(8-(4-(ethoxymethyl)-2,6-dimethoxyphenyl)quinolin-5-yl)propanoic acid] |  | 9 nM | 
3 | CC[C@@H](Nc1cc(F)c(C(=O)N[C@@H](Cc2ccc(-c3cc(N(C)C)c(C)n(C)c3=O)c3ncccc23)C(=O)O)c(F)c1)C(F)(F)F [Example 268] | 4.3 nM |  | 
4 | Cc1cc(N2CCOC[C@@H]2C(F)(F)F)cc(F)c1C(=O)N[C@@H](Cc1ccc(-n2c(=O)c3ccc(F)cc3n(C)c2=O)c2ncccc12)C(=O)O [Example 431] |  |  | EC50 [3]: 0.094 nM
5 | CC[C@@H](N(C)c1cc(F)c(C(=O)N[C@@H](Cc2ccc(-c3c(C(F)(F)F)cc(C)n(C)c3=O)c3ncccc23)C(=O)O)c(F)c1)C(F)(F)F [Example 135, (S)-2-(2,6-difluoro-4-(methyl((R)-1,1,1-trifluorobutan-2-yl)amino)benzamido)-3-(8-(1,6-dimethyl-2-oxo-4-(trifluoromethyl)-1,2-dihydropyridin-3-yl)quinolin-5-yl)propanoic acid] |  | 0.4 nM | 
6 | Cc1cc(N2CCCC[C@@H]2C(F)(F)F)cc(F)c1C(=O)N[C@@H](Cc1ccc(-c2nc(C)c(C)n(C)c2=O)c2ncccc12)C(=O)O [Example 453] |  |  | EC50 [3]: 0.677 nM
7 | CC[C@@H](Nc1cc(F)c(C(=O)N[C@@H](Cc2ccc(-c3nc(C)ccc3C(F)(F)F)c3ncccc23)C(=O)O)c(F)c1)C(F)(F)F [Example 289] | 6.5 nM |  | 
8 | Cc1cc(N2CCOC[C@@H]2C(F)(F)F)cc(F)c1C(=O)N[C@@H](Cc1ccc(-n2c(=O)c3ncccc3n(C)c2=O)c2ncccc12)C(=O)O [Example 399, (S)-2-(2-fluoro-6-methyl-4-((R)-3-(trifluoromethyl)morpholino)benzamido)-3-(8-(1-methyl-2,4-dioxo-1,4-dihydropyrido[3,2-d]pyrimidin-3(2H)-yl)quinolin-5-yl)propanoic acid] |  |  | EC50 [3]: 0.1 nM
9 | CC[C@@H](Nc1cc(F)c(C(=O)N[C@@H](Cc2ccc(-c3c(C(F)(F)F)cc(C)n(C)c3=O)c3nc(C)ccc23)C(=O)O)c(F)c1)C(F)(F)F [Example 183] | 0.9 nM |  | 

Further lines, with some results ahead:

Row | EC50 [1] | EC50 [2] | SMILES | other results
10 | 45.2 nM |  | N#Cc1ccc(-c2ccc(C[C@H](NC(=O)c3c(F)cc(N4CCC(F)(F)CC4)cc3F)C(=O)O)c3cccnc23)c(Cl)c1 [Example 220] | 
11 | 22.9 nM |  | N#Cc1ccc(-c2ccc(C[C@H](NC(=O)c3c(F)cc(N[C@H](c4ccc(F)cc4)C(F)(F)F)cc3F)C(=O)O)c3cccnc23)c(Cl)c1 [Example 331] | 
12 | 45.9 nM |  | N#Cc1ccc(-c2ccc(C[C@H](NC(=O)c3c(F)cc(NC4(C(F)F)CC4)cc3F)C(=O)O)c3cccnc23)c(Cl)c1 [Example 284] | 
13 |  | 9.5 nM | O=C(N[C@@H](Cc1ccc(-c2ncc3ccccc3c2C(F)(F)F)c2ncccc12)C(=O)O)c1c(F)cccc1F [Example 71, (S)-2-(2,6-difluorobenzamido)-3-(8-(4-(trifluoromethyl)isoquinolin-3-yl)quinolin-5-yl)propanoic acid] | 
14 | 13.8 nM |  | N#Cc1ccc(-c2ccc(C[C@H](NC(=O)c3c(Cl)cc4cc[nH]c4c3Cl)C(=O)O)c3cccnc23)c(Cl)c1 [Example 317] | 
15 | 63.1 nM |  | O=C(N[C@@H](Cc1ccc(-c2cc3ccccc3oc2=O)c2ncccc12)C(=O)O)c1c(Cl)cccc1Cl [Example 196] | 
16 |  | 90.7 nM | N#Cc1ccc(-c2ccc(C[C@H](NC(=O)c3c(F)cc(N4CCNC[C@@H]4C(F)(F)F)cc3F)C(=O)O)c3cccnc23)c(Cl)c1 [Example 77, (S)-3-(8-(2-chloro-4-cyanophenyl)quinolin-5-yl)-2-(2,6-difluoro-4-((R)-2-(trifluoromethyl)piperazin-1-yl)benzamido)propanoic acid] | 
